Assay results: publication PMC8147462, “Daldiniaeschsone A, a Rare Tricyclic Polyketide Having a Chromone Unit Fused to a δ-Lactone and Its Symmetrical Biphenyl Dimer, Daldiniaeschsone B, from an Endophytic Fungus Daldinia eschscholtzii SDBR-CMUNKC745” (Journal of Fungi, 2021)
“Also recorded” adds a separate entry of the source. Where two headings read alike, the source gives them in different places.

What was measured:
α-glucosidase = target: T1, α-glucosidase (Saccharomyces cerevisiae, UniProt P53341); assay: biochemical; details: for inhibition at 200 µg/mL: read-out: α-Glucosidase Inhibitory Activity % Inhibition at 200 µg/mL
T1 construct: purchased Sigma, St. Louis, MO, USA G5003
T1 sequence (P53341 whole entry): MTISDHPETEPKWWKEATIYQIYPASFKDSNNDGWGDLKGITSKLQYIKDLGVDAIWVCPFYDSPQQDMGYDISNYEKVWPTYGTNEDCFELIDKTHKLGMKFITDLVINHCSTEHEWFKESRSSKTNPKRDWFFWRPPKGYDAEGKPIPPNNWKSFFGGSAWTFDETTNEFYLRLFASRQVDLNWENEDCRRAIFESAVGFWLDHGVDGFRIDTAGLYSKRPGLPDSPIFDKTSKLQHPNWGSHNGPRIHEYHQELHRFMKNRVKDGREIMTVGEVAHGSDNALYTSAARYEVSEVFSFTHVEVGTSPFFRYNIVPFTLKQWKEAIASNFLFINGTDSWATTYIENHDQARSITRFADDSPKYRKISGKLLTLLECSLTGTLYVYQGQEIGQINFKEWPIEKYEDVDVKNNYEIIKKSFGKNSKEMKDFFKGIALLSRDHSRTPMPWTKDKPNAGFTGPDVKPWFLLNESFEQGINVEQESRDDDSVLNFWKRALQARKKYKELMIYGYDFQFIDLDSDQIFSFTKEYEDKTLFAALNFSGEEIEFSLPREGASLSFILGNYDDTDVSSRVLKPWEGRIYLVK
Protocol: A colorimetric α-glucosidase assay was carried out by the previously described procedure. Briefly, the sample solution was dissolved in DMSO after the solutions were diluted with a phosphate buffer (100 mM KH2PO4, pH 6.9) become DMSO (10%, v/v) concentration. The substrate, p-nitrophenyl α-D-glucoside (Sigma, St. Louis, USA, CAS No. N1377), (c 1.5 mM), was prepared by dissolving with phosphate buffer. The tested samples (50 uL) were combined with 100 μL of the α-glucosidase enzyme solution (0.35 U/mL, Sigma, St. Louis, MO, USA, CAS. No. G5003), then the mixture was pre-incubated for 10 min at 37 °C. The enzymatic reaction was started by applying substrate (100 μL, c 1.5 mM) into the mixture and incubated at 37 °C for 20 min. The reaction was subsequently terminated by the addition of Na2CO3 (1 mL, c 1 M). The absorption was immediately measured at 405 nm by determining the quantity of p-nitrophenol released from the substrate.

[1] = system: NO production in RAW 264.7 cells; assay: nitric oxide (NO) production inhibitory activity in LPS-treated RAW 264.7 cells (Griess reaction); format: cell-based; details: for inhibition at 50 µg/mL: read-out: Anti-Inflammatory (NO Production Inhibitory Activity) % Inhibition at 50 µg/mL; for NO production inhibitory activity (in words): RAW 264.7 macrophage cells
Protocol: The NO inhibitory activity was performed using the same procedure as previously reported. RAW 264.7 (American Type Culture Collection, Manassas, VA, USA) were seeded at 4 × 10^4 cells/well in 96 well plates suspended in 100 μL DMEM supplemented with 10% FBS and incubated at 37 °C 5% CO2 overnight. Cells were incubated with 1 µg/mL LPS for 1 h and treated with various concentrations of sample compounds and vehicle control (DMSO) for 24 h. After 24 h, the NO production inhibitory was determined in the culture supernatant using the Griess reaction by adding 100 µL of Griess reagent in a 96 well plate for 10 min. The determination of nitric oxide was measured at 570 nm with Biochrom EZ Read 400 ELISA microplate reader (Biochrom Ltd., Cambridge, United Kingdom). Additionally, the data were presented as IC50 which was calculated with GraphPad Prism 6.0 software.

[2] = cytotoxicity / cell viability MTT assay; format: cell-based; details: mouse, RAW 264.7 cells, RAW 264.7, 24 h
Protocol: (§1) Cell viability studies were evaluated by the MTT (3-[4,5-dimethylthiazol-2-yl]-2,5-diphenyl tetrazolium bromide) assay. In brief, RAW 264.7 cells (5 × 10^4 cells/well) were cultured and incubated in 96-well plates for 24 h. The samples were prepared in DMSO at different concentrations ([…]). The cells were then treated with samples in DMEM medium (10% FBS, […] streptomycin, and 100 IU/mL penicillin at 37 °C in a 5% CO2) for 24 h. The medium was then removed and each well was filled with fresh DMEM containing 0.5 mg/mL MTT solution for 4 h at 37 °C in a 5% CO2. After that, the medium was removed, and the formazan precipitate was dissolved in DMSO [21]. The absorbance was measured at 550 nm on a microplate reader. All processes were performed in triplicate.

RAW 264.7 cells = assay: cytotoxicity / cell viability MTT assay; format: cell-based
Protocol: as §1

[3] = Mus musculus, RAW264.7, LPS 1 µg/mL, 24 h
[4] = read-out: α-Glucosidase Inhibitory Activity IC50

Row | Compound | IC50 (α-glucosidase) [µM] | inhibition at 200 µg/mL (α-glucosidase) [%] | Anti-Inflammatory (NO Production Inhibitory Activity) IC50 ([1]; LPS 1 µg/mL, 24 h) | inhibition at 50 µg/mL [1, 3] [%] | NO production inhibitory activity (in words) [1] | viability at 24 h, 50 µg/mL [2] [%] | cytotoxicity against RAW 264.7 cells at 50 µg/mL (in words) (RAW 264.7 cells) | IC50 (α-glucosidase; [4]) [µM] | IC50 ([1]; Mus musculus, RAW264.7, LPS 1 µg/mL, 24 h, read-out: Anti-Inflammatory (NO Production Inhibitory Activity) IC50) [µM]
1 | COC(=O)C[C@@]12OC(=O)C[C@@H](C)[C@@H]1Oc1cccc(O)c1C2=O (relative stereo) [Compound 1, Daldiniaeschsone A] | 160 ± 110 | 98.7 | inactive | 26.5 | no NO production inhibitory activities | > 75 | without toxicity; also recorded: no cytotoxicity | – | –
2 | C[C@H]1O[C@H](O[C@H]2[C@H](O)[C@@H](O)[C@@H](O[C@H]3[C@H](O)[C@@H](O)C(O)O[C@@H]3CO)O[C@@H]2CO)[C@H](O)[C@@H](O)[C@@H]1N[C@H]1C=C(CO)[C@@H](O)[C@H](O)[C@H]1O (some centres unmarked) [Acarbose, reference compound] | – | 95.6 | – | – | – | – | – | – | –
3 | COC(=O)C[C@@]12OC(=O)C[C@@H](C)[C@@H]1Oc1ccc(-c3ccc4c(c3O)C(=O)[C@]3(CC(=O)OC)OC(=O)C[C@@H](C)[C@@H]3O4)c(O)c1C2=O [Compound 2, Daldiniaeschsone B] | 230 | 96.8 | inactive | 36.9 | no NO production inhibitory activities | – | without toxicity; also recorded: no cytotoxicity | – | –
4 | O=C1CC[C@H](O)c2cccc(O)c21 [Compound 3, (+)-regiolone] | – | 97.8 | – | – | – | – | – | 850 ± 1190 | –
5 | O=C1C[C@@H](O)[C@@H](O)c2cccc(O)c21 [Compound 4, (+)-3,4-dihydro-3,4,8-trihydroxy-1(2H)-naphthalenone] | – | 97.8 | – | – | – | – | – | 550 ± 1330 | –
6 | C[C@H]1Cc2cccc(O)c2C(=O)O1 [Compound 5, (+)-mellein] | – | 97.5 | – | – | – | – | – | 760 ± 90 | –
7 | COc1ccc2c(c1)c(CC(=O)O)c(C)n2C(=O)c1ccc(Cl)cc1 [Indomethacin, reference compound] | – | – | – | 71 | – | 85 ± 2.92 | – | – | 19.6 ± 0.62
